Results reported in publication PMC3894633 (Biochemistry, 2013).
Like-named read-outs stand apart in the source and are kept apart here.

Tests used:
[1] = system: M. tuberculosis ΔpanCDΔlysA; format: cell-based; conditions: for Growth inhibition of M. tuberculosis ΔpanCDΔlysA: 7 days in culture, tested up to 100 μM, inhibition only at 100 μM
human Lpd (hLpd) = target: T1, human Lpd (hLpd) (Homo sapiens, UniProt P09622); test: Human Lpd inhibition, DTNB assay with 10 μM lipoamide; format: biochemical; conditions: highest concentration tested 100 μM
T1 sequence (P09622 36-509): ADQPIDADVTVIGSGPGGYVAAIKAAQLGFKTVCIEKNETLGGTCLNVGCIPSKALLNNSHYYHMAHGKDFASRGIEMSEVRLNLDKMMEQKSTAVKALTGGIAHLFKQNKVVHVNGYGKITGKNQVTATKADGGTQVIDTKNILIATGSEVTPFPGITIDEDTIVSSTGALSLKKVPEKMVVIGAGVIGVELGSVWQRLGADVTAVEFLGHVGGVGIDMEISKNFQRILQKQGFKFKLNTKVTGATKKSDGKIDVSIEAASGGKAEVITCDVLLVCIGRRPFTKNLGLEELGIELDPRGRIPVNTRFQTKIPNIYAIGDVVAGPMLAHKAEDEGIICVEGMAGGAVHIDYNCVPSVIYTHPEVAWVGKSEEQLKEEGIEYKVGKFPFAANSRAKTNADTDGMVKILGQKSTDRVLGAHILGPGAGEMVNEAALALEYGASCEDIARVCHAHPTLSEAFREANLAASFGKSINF

M. bovis BCG = format: cell-based
M. tuberculosis H37Rv = test: Metabolic profiling of Mtb intracellular metabolites; format: cell-based, Mycobacterium tuberculosis; conditions: Mtb exposed to 75 μM
mycobacterial Lpd (mLpd) = target: T2, mycobacterial Lpd (mLpd) (Mycobacterium tuberculosis, UniProt P9WHH9); format: biochemical
T2 sequence (P9WHH9 1-464): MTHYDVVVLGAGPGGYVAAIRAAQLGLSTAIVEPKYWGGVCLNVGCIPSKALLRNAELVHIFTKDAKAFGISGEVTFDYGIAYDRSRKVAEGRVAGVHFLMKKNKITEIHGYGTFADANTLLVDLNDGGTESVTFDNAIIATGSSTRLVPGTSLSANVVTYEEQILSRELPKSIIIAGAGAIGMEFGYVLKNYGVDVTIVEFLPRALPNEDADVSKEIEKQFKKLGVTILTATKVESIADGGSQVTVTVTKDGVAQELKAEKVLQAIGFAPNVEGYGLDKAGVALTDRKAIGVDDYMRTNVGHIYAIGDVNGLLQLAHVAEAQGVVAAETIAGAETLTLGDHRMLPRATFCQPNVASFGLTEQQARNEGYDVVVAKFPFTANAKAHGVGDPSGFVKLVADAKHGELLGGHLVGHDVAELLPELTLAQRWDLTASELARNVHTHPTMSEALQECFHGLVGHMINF

Mtb = conditions: ref [20]; cited from earlier work

Question: With `COc1ccc(CCN(C)CCCC(C#N)(c2ccc(OC)c(OC)c2)C(C)C)cc1OC` (centres unmarked) [verapamil, reference compound] as the compound, how does the “Growth inhibitory effect on Mtb on its own” value ([1]; 50 μM) read?
Answer: no growth inhibitory effect

Question: For `CN(CC(=O)Nc1ccc(F)c(Cl)c1)S(=O)(=O)c1cc(Br)cnc1N` [SL418], which “Inhibition of hLpd” value (human Lpd (hLpd)) is on record?
Answer: did not inhibit

Question: And the “Growth inhibition of M. tuberculosis ΔpanCDΔlysA” value [1]?
Answer: No growth inhibition

Question: And the “Growth inhibition of M. bovis BCG” value (M. bovis BCG; 7 days in culture, tested up to 100 μM, inhibition only at 100 μM)?
Answer: No growth inhibition

Question: With `COc1ccc(NC(=O)CN(C)S(=O)(=O)c2cc(Br)cnc2N)cc1` [SL827, 2-(2-amino-5-bromo-N-methylpyridine-3-sulfonamido)-N-(4-methoxyphenyl)acetamide] as the compound, how does the “Changes in alanine, valine and leucine levels” value (M. tuberculosis H37Rv) read?
Answer: no changes

Question: And the “Inhibition of hLpd” value (human Lpd (hLpd))?
Answer: did not inhibit

Question: What about the “Growth inhibition of M. tuberculosis ΔpanCDΔlysA” value [1] of the same compound?
Answer: No growth inhibition

Question: What about the “Growth inhibition of M. bovis BCG” value (M. bovis BCG) of the same compound?
Answer: No growth inhibition

Question: For `COC(=O)[C@H]1[C@H]2C[C@@H]3c4[nH]c5cc(OC)ccc5c4CCN3C[C@H]2C[C@@H](OC(=O)c2cc(OC)c(OC)c(OC)c2)[C@@H]1OC` [reserpine, reference compound], which “Growth inhibitory effect on Mtb on its own” value ([1]; 25 μM) is on record?
Answer: no growth inhibitory effect

Question: Which Loss of potency (mycobacterial Lpd (mLpd)) does the source give for `CN(Cc1ccccc1)C(=O)CN(C)S(=O)(=O)c1cc(Br)cnc1N` [E144-0828] here?
Answer: 100 fold

Question: With `Nc1ccc(S(N)(=O)=O)cc1` [sulfanilamide] as the compound, how does the “Growth inhibitory effect on Mtb” value (Mtb) read?
Answer: little or no growth inhibitory effect

Question: With `Cc1cc(NS(=O)(=O)c2ccc(N)cc2)no1` [Sulfamethoxazole] as the compound, how does the “Growth inhibitory effect on Mtb” value (Mtb) read?
Answer: little or no growth inhibitory effect

Question: Which Loss of potency (mycobacterial Lpd (mLpd)) does the source give for `Nc1ncc(Br)cc1S(=O)(=O)NCCC(=O)Nc1cccc(Cl)c1` [K906-3123] here?
Answer: even greater loss of potency

Question: With `CCN(Cc1ccccc1)C(=O)CN(C)S(=O)(=O)c1cc(Br)cnc1N` [E114-0951] as the compound, how does the Loss of potency (mycobacterial Lpd (mLpd)) read?
Answer: 100 fold
